# Data: patent US20090215812A1, “BIOMARKERS FOR EVALUATING LIKELIHOOD OF TUMOR SENSITIVITY TO AN MTOR INHIBITOR” (ARIAD GENE THERAPEUTICS, INC., priority 2005, published 2009)
# Columns and labels:
# HT1080 = assay: in vitro proliferation assay (CellTiter 96 Aqueous One Solution); type: cell-based, human
# Method: (§1) A series of in vitro proliferation assays were performed on 14 human tumor-derived cell lines exposed to AP23573 at concentrations ranging from 0.01 nM to […]. Cells were plated into 96-well plates (between 750 and 5000 cells per well as per the table below), in cell culture medium containing serial dilutions of AP23573, or in the absence of AP23573 as a control, and were then incubated for 3 days.
# (§2) At the end of the incubation, the number of cells in each well (cell viability) was determined using a CellTiter 96® Aqueous One Solution Cell Proliferation metabolic activity assay kit (Promega). This assay is based on the use of a reagent that monitors the total reducing environment of a population of cells. The quantity of reduced products, which is determined spectrophotometrically, is directly proportional to the number of viable cells in the culture. The percentage of cells remaining after treatment with each concentration of AP23573 was then determined relative to the number of cells remaining in the untreated wells.
# (§3) For each cell line the percentage cells remaining after treatment with AP23573 reached a plateau between 1 and 10 nM. Thus the inhibitory effect of AP23573 on cell proliferation was calculated by taking the average of the percentage of cells remaining at the 10, 33 and 100 nM concentration levels. A lower percentage of cells remaining reflects a larger inhibitory effect of AP23573. The experiment was performed two or three times for each cell line and the results averaged.
# HCT116 = assay: as above; type: cell-based, human
# Method: as §1, §2, §3
# MDA-453 = assay: as above; type: cell-based, human; conditions: average of 10, 33 and 100 nM, 3 days incubation, relative to untreated wells
# Method: as §1, §2, §3
# AN3CA = assay: as above; type: cell-based, human; conditions: average of 10, 33 and 100 nM, 3 days incubation, relative to untreated wells
# Method: as §1, §2, §3
# MDA-468 = assay: as above; type: cell-based, human; conditions: average of 10, 33 and 100 nM, 3 days incubation, relative to untreated wells
# Method: as §1, §2, §3
# ES2 = assay: as above; type: cell-based, human; conditions: average of 10, 33 and 100 nM, 3 days incubation, relative to untreated wells
# Method: as §1, §2, §3
# BT474 = assay: as above; type: cell-based, human; conditions: average of 10, 33 and 100 nM, 3 days incubation, relative to untreated wells
# Method: as §1, §2, §3
# DU145 = assay: as above; type: cell-based, human; conditions: average of 10, 33 and 100 nM, 3 days incubation, relative to untreated wells
# Method: as §1, §2, §3
# SKOV3 = assay: as above; type: cell-based, human; conditions: average of 10, 33 and 100 nM, 3 days incubation, relative to untreated wells
# Method: as §1, §2, §3
# HEC1A = assay: as above; type: cell-based, human; conditions: average of 10, 33 and 100 nM, 3 days incubation, relative to untreated wells
# Method: as §1, §2, §3
# PC3 = assay: as above; type: cell-based, human; conditions: average of 10, 33 and 100 nM, 3 days incubation, relative to untreated wells
# Method: as §1, §2, §3
# SKBR3 = assay: as above; type: cell-based, human; conditions: average of 10, 33 and 100 nM, 3 days incubation, relative to untreated wells
# Method: as §1, §2, §3
# MDA-435S = assay: as above; type: cell-based, human; conditions: average of 10, 33 and 100 nM, 3 days incubation, relative to untreated wells
# Method: as §1, §2, §3
# MCF7 = assay: as above; type: cell-based, human; conditions: average of 10, 33 and 100 nM, 3 days incubation, relative to untreated wells
# Method: as §1, §2, §3
# sarcoma = assay: ongoing clinical trial of AP23573 in sarcoma; type: in vivo, human; conditions: number of patients
# Excerpt: The experiment is repeated several times using either mixed sets of samples that included samples from tumors of various types or using sets of samples from a single tumor type (prostate cancer, leiomyosarcoma, osteosarcoma). Some of the samples are obtained from an ongoing clinical trial of AP23573 in sarcoma, results of which are presented below: […]
# [1] = system: 14 human tumor-derived cell lines; assay: in vitro proliferation assays on panel of tumor cell lines; type: cell-based
# Method: as §1, §2
# For each cell line the percentage cells remaining after treatment with AP23573 reached a plateau between 1 and 10 nM. Thus the inhibitory effect of AP23573 on cell proliferation was calculated by taking the average of the percentage of cells remaining at the 10, 33 and 100 nM concentration levels. […]
# [2] = average of 10, 33 and 100 nM, 3 days incubation, relative to untreated wells
compound,measurement,setting,value
CO[C@H]1C[C@@H]2CC[C@@H](C)[C@@](O)(O2)C(=O)C(=O)N2CCCC[C@H]2C(=O)O[C@H]([C@H](C)C[C@@H]2CC[C@@H](OP(C)(C)=O)[C@H](OC)C2)CC(=O)[C@H](C)/C=C(\C)[C@@H](O)[C@@H](OC)C(=O)[C@H](C)C[C@H](C)/C=C/C=C/C=C/1C [AP23573],Percent Cells Remaining,HT1080; [2],37%
same,sensitivity to AP23573,HT1080; high FKBP12 expression level,relatively sensitive
same,Percent Cells Remaining,HCT116; [2],94%
same,sensitivity to AP23573,HCT116; low FKBP12 expression level,relatively resistant
same,Percent Cells Remaining,MDA-453,58%
same,Percent Cells Remaining,AN3CA,45%
same,Percent Cells Remaining,MDA-468,77%
same,Percent Cells Remaining,ES2,63%
same,Percent Cells Remaining,BT474,80%
same,Percent Cells Remaining,DU145,81%
same,Percent Cells Remaining,SKOV3,61%
same,Percent Cells Remaining,HEC1A,70%
same,Percent Cells Remaining,PC3,51%
same,Percent Cells Remaining,SKBR3,55%
same,Percent Cells Remaining,MDA-435S,68%
same,Percent Cells Remaining,MCF7,55%
same,CR/PR (complete response / partial response),sarcoma; Bone Cohort (19),3
same,PD (progressive disease),sarcoma; Bone Cohort (19),5
same,CR/PR (complete response / partial response),sarcoma; Leiomyosarcoma (18),0
same,PD (progressive disease),sarcoma; Leiomyosarcoma (18),6
same,CR/PR (complete response / partial response),sarcoma; Liposarcoma (13),0
same,PD (progressive disease),sarcoma; Liposarcoma (13),5
same,CR/PR (complete response / partial response),sarcoma; Other Sarcoma (20),0
same,PD (progressive disease),sarcoma; Other Sarcoma (20),7
same,sensitivity to AP23573,"[1]; HEC1A, BT474, MDA468, DU145, HCT116 (lower FKBP12 expression)",lower levels of sensitivity
same,sensitivity to AP23573,"[1]; HT1080, PC3, ES2, SKBR3 (relatively high FKBP12 expression)",relatively high levels of sensitivity
